Experimental data from patent publication US4654348A, “Pyrazolo[4,3-d]pyrimidine derivative, process for its production, antihyperlipidemic agent containing it, its intermediate, and process for the production of the intermediate” (Nissan Chemical Industries Ltd., priority 1984, dated 1987).

Assays:
serum lipid = conditions: Science, 193, 903 (1976); J. Lipid Res., 12, 596 (1971); cited from earlier work
male ddY mice = assay: Test 2: Acute toxicity (mortality after seven days); assay type: in vivo; conditions: 8000 mg/kg p.o., 10080 min
Experimental: The test compounds suspended in 0.5% CMC-Na were administered p.o. to male ddY mice. The acute toxicity was determined based on the mortality after seven days. In respect of the compounds of Examples 1, 9, 10 and 11 of the present invention, the mortality was 0% even at a dose of as high as 8000 mg/kg by oral administration.

[1] = tested on: emulsion-induced hyperlipidemic rats; assay: Test 1: antihyperlipidemic activity in emulsion-induced hyperlipidemic rats (serum Chol, HDL-Chol, liver weight); assay type: in vivo, male S.D. rats; conditions: 3 days, vs control; for Degree of hepatomegaly (change rate of the liver weight): liver weight per 100 g body weight, 300 mg/kg/day
Experimental: The antihyperlipidemic activity in emulsion-induced hyperlipidemic rats:
Male S.D. rats weighing 80-90 g (4 weeks old) were used. They were divided into groups of 5 to 6 rats each. The test compounds suspended in 0.5% CMC-Na(carboxymethyl cellulose sodium salt) were given to the rats in a daily dose of 4 ml/kg (i.e. 300 mg/kg of the test compounds) via stomach tube every 10:00 a.m. After 30 min., lipids emulsion having the following composition was orally given to the rats in an amount of 2.5 ml per rat.
Cholic acid sodium salt 10.0 g
During the experimental period of 3 days, the rats were fed on a standard commercial diet and water ad libitum. […] The total cholesterol and HDL cholesterol were measured.
The weight of the liver was measured. To the control group, only the aqueous CMC-Na solution and the lipids emulsion were given.
The fractionation of lipoproteins was conducted by a dextran sulfate-MgCl2 precipitation method.
Cholesterol in serum was measured by means of a cholesterol measuring kit (Cholesterol C-Test Wako, manufactured by Wako Junyaku Co., Ltd.), and cholesterol in HDL was measured by means of NC Hi-Set, manufactured by Nippon Chemiphar Co., Ltd.
Further, the reduction rate of Chol was calculated by the following equation. [formula] where A is the amount of serum Chol (mg/dl) of the control group, and B is the amount of serum Chol (mg/dl) of the group to which the therapeutic agent was administered.
Likewise, the increase rate of HDL-Chol was calculated by the following equation. [formula] where C is the amount of serum HDL-Chol (mg/dl) of the control group, and D is the amount of serum HDL-Chol (mg/dl) of the group to which the therapeutic agent was administered.
The degree of hepatomegaly (i.e. the change rate of the liver weight) was calculated by the following equation. [formula] where E is the liver weight (g) per 100 g of the body weight of the control group, and F is the liver weight (g) per 100 g of the body weight of the group to which the therapeutic agent was administered.

animals = conditions: animal experiments; Svoboda and Azarnoff, Cancer Res., 39, 3419 (1979); cited from earlier work
[2] = in words; cited from earlier work

For `Nc1ncnc2[nH]ncc12` [1H-pyrazolo[3,4-d]pyrimidine-4-amine], the serum lipid reduction (serum lipid) is listed as “function to reduce serum lipid”.

With `CC/C=C\C/C=C\C/C=C\CCCCCCCCOc1c2ncnc(SCC(=O)OCC)c2nn1C` [Example 11, 2-Methyl-3-linolenyloxy-7-ethoxycarbonylmethylthio-pyrazolo[4,3-d]pyrimidine] the mortality (male ddY mice) was 0%, the “Increase rate of serum HDL-Chol” value ([1]; 300 mg/kg/day via stomach tube) was 26% and the “Reduction rate of serum Chol.” value ([1]; 300 mg/kg/day via stomach tube) was 83%. For the same compound, the “Degree of hepatomegaly (change rate of the liver weight)” value [1] was “+20%”.

In the case of `CCOC(=O)C(C)(C)Oc1ccc(Cl)cc1` [Clofibrate, reference compound], the hepatic carcinoma (animals) is listed as “brings about hepatic carcinoma on animal experiments”, the “subsidiary ill effects reported” value [2] is listed as “myalgia or hepatic insufficiency, and they are likely to lead to gallstone formation” and the change in vivo at 300 mg/kg ([1]; Rattus norvegicus, po, 72 h, 300 mg/kg/day via stomach tube, read-out: Increase rate of serum HDL-Chol) is listed as 12%. The inhibition in vivo at 300 mg/kg ([1]; Rattus norvegicus, po, 72 h, 300 mg/kg/day via stomach tube, read-out: Reduction rate of serum Chol.) was 44% and the “Degree of hepatomegaly (change rate of the liver weight)” value [1] was “+22%”.
